{"source": "patent US9517244B2", "about": "“Therapeutic combinations for use in neoplasia” (University of Florida Research Foundation, Inc., priority 2011, dated 2016)", "key": {"[1]": {"system": "CD133, Nanog, Oct4, Sox2 expression in human parental cancer cells", "assay": "qRT-PCR of self-renewal marker genes in parental cancer cells", "assay_type": "cell-based", "conditions": "1.25 μM NSC-30049 + 1.25 μM OPT, 72 h, compared to either alone", "procedure": "(§1) Cells were treated with 1.25 μM of NSC-30049 and 1.25 μM of OPT either alone or in combination for 72 h. Data are mean±SD of triplicate experiments. FIG. 9B depicts the inhibition in expression of self-renewal marker genes of colon cancer stem cells, qRT-PCR data of CD133+, Oct4, Sox2 and Nanog gene expression levels of parental cancer cells and colon cancer stem cells was obtained. Cells were treated with 1.25 μM of NSC-30049 and 1.25 μM of OPT either alone or in combination for 72 h. Fold change in gene expression values is shown as mean±SD of three experiments and are normalized to GAPDH gene expression.\n(§2) Without being bound to a particular theory, the effect of administration of NSC-30049 in combination with oxaliplatin (OPT) on the expression of self-renewal marker genes of colon cancer stem cells was analyzed. Self-renewal marker genes are highly expressed in colon cancer stem cells compared to human parental cancer cells. qRT-PCR data of CD133+, Oct4, Sox2 and Nanog gene expression levels of parental cancer cells and colon cancer stem cells was obtained (FIG. 9B). Cells were treated with 1.25 μM of NSC-30049 and 1.25 μM of OPT either alone or in combination for 72 h. The fold change in gene expression values is shown as mean±SD of three experiments and were normalized to GAPDH gene expression. […]"}, "BxPC3": {"system": "BxPC3", "assay": "MTT assay, pancreatic cancer cell line", "assay_type": "cell-based, human", "conditions": "Homo sapiens, BXPC-3; BxPC3 (dFdC-sensitive); single agent; 72 h; read-out: IC50"}, "AsPC1": {"system": "AsPC1", "assay": "MTT assay, pancreatic cancer cell line", "assay_type": "cell-based, human", "conditions": "Homo sapiens; AsPC1 (dFdC-resistant); single agent; 72 h; read-out: IC50"}, "colon cancer stem cells": {"system": "colon cancer stem cells", "assay": "cell growth inhibition of colon cancer stem cells", "assay_type": "cell-based, human", "conditions": "Homo sapiens, 72 h", "procedure": "Cells were treated with 1.25 μM of NSC-30049 and 1.25 μM of OPT either alone or in combination for 72 h. Data are mean±SD of triplicate experiments. […] Cells were treated with 1.25 μM of NSC-30049 and 1.25 μM of OPT either alone or in combination for 72 h. Fold change in gene expression values is shown as mean±SD of three experiments and are normalized to GAPDH gene expression.\nThe effect of administration of NSC-30049 in combination with oxaliplatin (OPT) was also examined in human parental cancer cells and colon cancer stem cells (FIG. 9A). Cells were treated with 1.25 μM of NSC-30049 and […] of OPT either alone or in combination for 72 h. Cell growth inhibition was assayed. Data presented are mean±SD of triplicate experiments."}, "APE1": {"biological_target": "APE1 (Homo sapiens, UniProt P27695)", "sequence (P27695 whole entry)": "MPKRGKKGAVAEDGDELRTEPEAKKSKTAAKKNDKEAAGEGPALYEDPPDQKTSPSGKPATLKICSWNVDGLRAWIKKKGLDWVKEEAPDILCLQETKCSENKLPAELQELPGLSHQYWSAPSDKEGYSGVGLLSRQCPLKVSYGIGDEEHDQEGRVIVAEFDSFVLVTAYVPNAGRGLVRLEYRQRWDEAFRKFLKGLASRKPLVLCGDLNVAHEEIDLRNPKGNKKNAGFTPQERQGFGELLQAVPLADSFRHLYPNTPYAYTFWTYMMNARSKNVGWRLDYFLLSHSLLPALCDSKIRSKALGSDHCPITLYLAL", "assay": "in vitro APE1 activity assay with purified APE1 and 32P-labeled 63-mer F-DNA", "assay_type": "biochemical", "excerpt": "FIGS. 4A and 4B depict the screening of small molecules. FIG. 4A depicts an in vitro assay system to determine the effect of compounds on the blockage of APE1-activity using purified APE1 and ^32P-labeled 63-mer F-DNA. FIG. 4B is a gel depicting the effect of the small molecules on APE1 activity. […] Data are representative of duplicate experiments.\nFIG. 5A depicts an in vitro assay protocol using purified APE1 protein. FIG. 5B is an image of a gel showing a dose-dependent effect of NSC-30049 on APE1 activity. […] FIG. 5C is a graph depicting the percent cleavage and the IC50 of NSC-30049 to block APE1 activity, showing that APE1 is blocked in a dose-dependent manner. Data is mean±SE of three different experiments.\nTo determine the effect of compounds on the blockage of APE1 activity, an in vitro assay system was developed using purified APE1 and ^32P-labeled 63-mer F-DNA (FIG. 4A). Several small molecules (NSC-9746, NSC-18468, NSC-2137, NAC-30049 and NSC-32895) were screened for their ability to inhibit APE1 activity in the in vitro assay (FIG. 4B)."}, "[2]": {"system": "CD133, Nanog, Oct4, Sox2 expression in colon cancer stem cells", "assay": "qRT-PCR of self-renewal marker genes in colon cancer stem cells", "assay_type": "cell-based, human", "conditions": "1.25 μM NSC-30049 + 1.25 μM OPT, 72 h, compared to either alone", "procedure": "as §1, §2"}, "HPAC": {"system": "HPAC", "assay": "MTT assay, pancreatic cancer cell line", "assay_type": "cell-based, human", "conditions": "Homo sapiens; HPAC (dFdC-sensitive); single agent; 72 h; read-out: IC50"}, "[3]": {"system": "CD133, Nanog, Oct4, Sox2 expression in GBM-L0 stem cells", "assay": "qRT-PCR of self-renewal genes in GBM-L0 stem cells", "assay_type": "cell-based", "conditions": "2.5 μM NSC-30049 + 10 or 100 μM TMZ, 36 h, compared to either alone", "procedure": "Cells were pretreated with 2.5 μM of NSC30049 or 10 or 100 μM TMZ alone or in combination with NSC-30049 for 36 h. Then, total RNA was isolated and processed for gRT-PCR. Data presented are the mean±SE of three different measurements. […] Treatment with NSC-30049 or TMZ reduced the expression of aldehyde dehydrogenase gene Aldh1a7 in GBM-LO stem cell line in vitro, but not treatment with NSC-30049 and TMZ. Cells were pretreated with 2.5 μM of NSC30049 or 10 or 100 μM of TMZ alone or in combination with NSC-30049 for 36 h. Then, total RNA was isolated and processed for qRT-PCR. Data presented are the mean±SE of three different measurements.\nWithout being bound to a particular theory, the effect of administration of NSC-30049 in combination with temozolomide (TMZ) on the expression of self-renewal marker genes of […] was analyzed. Self-renewal marker genes are highly expressed in colon cancer stem cells compared to human parental cancer cells. qRT-PCR data of CD133+, Oct4, Sox2 and Nanog gene expression levels of GBM-L0 stem cells was obtained (FIG. 14A). Cells were pretreated with 2.5 μM of NSC30049 or 10 or 100 μM of TMZ alone or in combination with NSC-30049 for 36 h. Then, total RNA was isolated and processed for qRT-PCR. Data presented are the mean±SE of three different measurements. […]"}, "PANC1": {"system": "PANC1", "assay": "MTT assay, pancreatic cancer cell line", "assay_type": "cell-based, human", "conditions": "Homo sapiens, PANC-1; PANC1 (dFdC-resistant); single agent; 72 h; read-out: IC50"}}, "data": [{"smiles": "ClCC=CC[N+]12CN3CN(CN(C3)C1)C2", "note": "[NSC-30049, 1-(4-Chloro-2-butenyl)-1λ˜5˜,3,5,7-tetraazatricyclo[3.3.1.1˜3,7˜]decane]", "values": [{"measurement": "expression of CD133, Nanog, Oct4, and Sox2", "setting": "[1]", "value": "inhibited the expression of CD133, Nanog, Oct4, and Sox2 in human parental cancer cells"}, {"measurement": "IC50", "setting": "BxPC3", "value": "3.87 ± 0.24", "unit": "µM"}, {"measurement": "IC50", "setting": "AsPC1", "value": "1.88 ± 0.11", "unit": "µM"}, {"measurement": "inhibition at 1.25 µM", "setting": "colon cancer stem cells; 1.25 μM NSC-30049 in combination with 1.25 μM oxaliplatin", "value": "~80", "unit": "%"}, {"measurement": "inhibition at 1.25 µM", "setting": "colon cancer stem cells; alone, 1.25 μM", "value": "~10", "unit": "%"}, {"measurement": "inhibition of APE1 activity in screen", "setting": "APE1; 5, 10, 20 and 40 μM", "value": "inhibit APE1 activity in the in vitro assay at all concentrations tested"}, {"measurement": "IC50", "setting": "APE1; purified APE1, read-out: IC50 to block APE1 activity", "value": 0.0072, "unit": "µM"}, {"measurement": "expression of CD133, Nanog, Oct4, and Sox2", "setting": "[2]", "value": "significantly inhibited the expression of CD133, Nanog, Oct4, and Sox2"}, {"measurement": "IC50", "setting": "HPAC", "value": "4.44 ± 0.28", "unit": "µM"}, {"measurement": "expression of CD133, Nanog, Oct4, and Sox2", "setting": "[3]", "value": "significantly inhibited the expression of CD133, Nanog, Oct4, and Sox2"}, {"measurement": "IC50", "setting": "PANC1", "value": "5.12 ± 0.22", "unit": "µM"}]}]}
